This is an account of results in patent publication US10472401B2, “Peptides and combination of peptides for use in immunotherapy against ovarian cancer and other cancers” (immatics biotechnologies GmbH, priority 2015, dated 2019).

The test system of one assay is CD8+ T cells. Put plainly: In vitro immunogenicity: priming of CD8+ T cells with aAPCs loaded with peptide/MHC and anti-CD28, multimer staining. The assay is classed as cell-based, human. Particulars: for Wells positive [%]: HLA-A*02 restricted peptides, percentage of positive wells (among evaluable). From the text: In order to obtain information regarding the immunogenicity of the TUMAPs of the present invention, the inventors performed investigations using an in vitro T-cell priming assay based on repeated stimulations of CD8+ T cells with artificial antigen presenting cells (aAPCs) loaded with peptide/MHC complexes and anti-CD28 antibody.
In order to perform in vitro stimulations by artificial antigen presenting cells loaded with peptide-MHC complex (pMHC) and anti-CD28 antibody, the inventors first isolated CD8+ T cells from fresh HLA-A*02 leukopheresis products via positive selection using CD8 microbeads (Miltenyi Biotec, Bergisch-Gladbach, Germany) of healthy donors obtained from the University clinics Mannheim, Germany, after informed consent.
PBMCs and isolated CD8+ lymphocytes were incubated in T-cell medium (TCM) until use consisting of RPMI-Glutamax (Invitrogen, Karlsruhe, Germany) supplemented with 10% heat inactivated human AB serum (PAN-Biotech, Aidenbach, Germany), 100 U/ml Penicillin/100 μg/ml Streptomycin (Cambrex, Cologne, Germany), 1 mM sodium pyruvate (CC Pro, Oberdorla, Germany), 20 μg/ml Gentamycin (Cambrex). 2.5 ng/ml IL-7 (PromoCell, Heidelberg, Germany) and 10 U/ml IL-2 (Novartis Pharma, Nürnberg, Germany) were also added to the TCM at this step.
Generation of pMHC/anti-CD28 coated beads, T-cell stimulations and readout was performed in a highly defined in vitro system using four different pMHC molecules per stimulation condition and 8 different pMHC molecules per readout condition.
The purified co-stimulatory mouse IgG2a anti human CD28 Ab 9.3 (Jung et al., 1987) was chemically biotinylated using Sulfo-N-hydroxysuccinimidobiotin as recommended by the manufacturer (Perbio, Bonn, Germany). Beads used were 5.6 μm diameter streptavidin coated polystyrene particles (Bangs Laboratories, Illinois, USA).
pMHC used for positive and negative control stimulations were A*0201/MLA-001 (peptide […] (SEQ ID NO. 664) from modified Melan-A/MART-1) and A*0201/DDX5-001 ([…] from DDX5, SEQ ID NO. 665), respectively.
800.000 beads/200 μl were coated in 96-well plates in the presence of 4×12.5 ng different biotin-pMHC, washed and 600 ng biotin anti-CD28 were added subsequently in a volume of 200 μl. Stimulations were initiated in 96-well plates by co-incubating […] CD8+ T cells with 2×10^5 washed coated beads in 200 μl TCM supplemented with 5 ng/ml IL-12 (PromoCell) for 3 days at 37° C. Half of the medium was then exchanged by fresh TCM supplemented with 80 U/ml IL-2 and incubating was continued for 4 days at 37° C. This stimulation cycle was performed for a total of three times. For the pMHC multimer readout using 8 different pMHC molecules per condition, a two-dimensional combinatorial coding approach was used as previously described (Andersen et al., 2012) with minor modifications encompassing coupling to 5 different fluorochromes. Finally, multimeric analyses were performed by staining the cells with Live/dead near IR dye (Invitrogen, Karlsruhe, Germany), CD8-FITC antibody clone SK1 (BD, Heidelberg, Germany) and fluorescent pMHC multimers. For analysis, a BD LSRII SORP cytometer equipped with appropriate lasers and filters was used. Peptide specific cells were calculated as percentage of total CD8+ cells. Evaluation of multimeric analysis was done using the FlowJo software (Tree Star, Oregon, USA). In vitro priming of specific multimer+ CD8+ lymphocytes was detected by comparing to negative control stimulations.
Exemplary flow cytometry results after TUMAP-specific multimer staining for two peptides of the invention are shown in FIG. 3 together with corresponding negative controls.

In the next assay the target is HLA-A*02:01 (Homo sapiens, UniProt P04439, D140Y/D185E/D98H/E176V/E277Q/G131W/G231S/I119V/I121R/I166T/I218V/L300P/L318F/N151K/N90K/P208A/P217A/Q86G/Q94H/R138H/R169H/T345S). Put plainly: MHC binding assay (UV-ligand exchange, ELISA of stabilized MHC complexes). Particulars: MHC class I binding score; binding to HLA-A*02:01 ranged by peptide exchange yield (UV-ligand exchange, ELISA). An outline of the steps:
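Peptide-MHC complexes made by UV-ligand exchange, cleaving a UV-sensitive placeholder peptide and replacing it with the test peptide. Exchange yield measured by ELISA: streptavidin-captured monomers (diluted 100-fold, 1 h, 37 °C) detected with HRP anti-β2m and TMB, absorbance at 450 nm.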

Consider “48 (ALAELYEDEV; listed as Homo sapiens) [compound 48]”, for which the “Wells positive [%]” value with CD8+ T cells is recorded as “″+″ (<20% = +)”. The Peptide exchange result with HLA-A*02:01 is given as “″+++″ (≥50% = +++)”.
Turning to “56 (KLYEGIPVLL; listed as Homo sapiens) [compound 56]”, the “Wells positive [%]” value in the assay with CD8+ T cells was “″+″ (<20% = +)”. For the same substance, the Peptide exchange result with HLA-A*02:01 was “″++++″ (≥75% = ++++)”.
As to “60 (SLTIDGIYYV; listed as Homo sapiens) [compound 60]”, the “Wells positive [%]” value in the assay on CD8+ T cells is reported as “″++++″ (> = 70% = ++++)”. Further, the Peptide exchange result with HLA-A*02:01 is “″++++″ (≥75% = ++++)”.
On the same counts, the results for “79 (SLFIGEKAVLL; listed as Homo sapiens) [compound 79]” are “″+″ (<20% = +)” and “″+++″ (≥50% = +++)”.
With “113 (GLLPTPLFGV; listed as Homo sapiens) [compound 113]”, the “Wells positive [%]” value in the assay with CD8+ T cells is given as “″+″ (<20% = +)”. Besides, the Peptide exchange entry with HLA-A*02:01 is on record as “″+++″ (≥50% = +++)”.
“118 (KLIDNNINV; listed as Homo sapiens) [compound 118]”: the “Wells positive [%]” value in the assay on CD8+ T cells is reported as “″+″ (<20% = +)”. Also, the Peptide exchange entry in the assay with HLA-A*02:01 is recorded as “″+++″ (≥50% = +++)”.
As to “141 (YLDFSNNRL; listed as Homo sapiens) [compound 141]”, the “Wells positive [%]” value in the assay with CD8+ T cells is listed as “″+″ (<20% = +)”. The Peptide exchange entry with HLA-A*02:01 is on record as “″++″ (≥20% = ++)”.
On the same counts, the results for “143 (LLLDITPEI; listed as Homo sapiens) [compound 143]” are “″+″ (<20% = +)” and “″++++″ (≥75% = ++++)”.
The like results for “150 (RLWEEGEELEL; listed as Homo sapiens) [compound 150]” were, in that order, “″+″ (<20% = +)” and “″+++″ (≥50% = +++)”.
The like results for “166 (YLNHLEPPV; listed as Homo sapiens) [compound 166]” were, in that order, “″++++″ (> = 70% = ++++)” and “″+++″ (≥50% = +++)”.
“199 (ALQDVPLSSV; listed as Homo sapiens) [compound 199]”: the “Wells positive [%]” value in the assay on CD8+ T cells was “″+″ (<20% = +)”. In addition, the Peptide exchange entry in the assay with HLA-A*02:01 is “″+++″ (≥50% = +++)”.
“247 (VLLPNDLLEKV; listed as Homo sapiens) [compound 247]”: the “Wells positive [%]” value with CD8+ T cells is recorded as “″+″ (<20% = +)”. Further, in the assay with HLA-A*02:01, the Peptide exchange entry is recorded as “″+++″ (≥50% = +++)”.
Consider “283 (ALYIGDGYVIHLA; listed as Homo sapiens) [compound 283]”, for which the wells result in the assay on CD8+ T cells (HLA class I peptides, positive wells) is “+ (<20% = +)”. Further, the Peptide exchange result in the assay with HLA-A*02:01 was “″+++″ (≥50% = +++)”.
With “319 (SLEPQIQPV; listed as Homo sapiens) [compound 319]”, the “Wells positive [%]” value in the assay on CD8+ T cells is “″+″ (<20% = +)”. For the same substance, the Peptide exchange entry with HLA-A*02:01 was “″++″ (≥20% = ++)”.
Take “384 (ILFANPNIFV; listed as Homo sapiens) [compound 384]”: the “Wells positive [%]” value with CD8+ T cells was “″+″ (<20% = +)”. In the assay with HLA-A*02:01, the Peptide exchange entry is on record as “″+++″ (≥50% = +++)”.
As for “443 (GLWEIENNPTV; listed as Homo sapiens) [compound 443]”, the “Wells positive [%]” value in the assay on CD8+ T cells is listed as “″+″ (<20% = +)”. In addition, in the assay with HLA-A*02:01, the Peptide exchange result is recorded as “″+++″ (≥50% = +++)”.
With “460 (AMLEKNYKL; listed as Homo sapiens) [compound 460]”, the “Wells positive [%]” value in the assay with CD8+ T cells was “″+″ (<20% = +)”. Also, the Peptide exchange entry in the assay with HLA-A*02:01 is “″++++″ (≥75% = ++++)”.
With “489 (KMWEELPEVV; listed as Homo sapiens) [compound 489]”, in the assay with CD8+ T cells, the “Wells positive [%]” value was “″+″ (<20% = +)”. In the assay with HLA-A*02:01, the Peptide exchange entry is listed as “″+++″ (≥50% = +++)”.
The like results for “499 (KIFDIDEAEEGV; listed as Homo sapiens) [compound 499]” were, in that order, “″+″ (<20% = +)” and “″++″ (≥20% = ++)”.
On the same counts, the results for “511 (FLDPYCSASV; listed as Homo sapiens) [compound 511]” are “″+″ (<20% = +)” and “″++″ (≥20% = ++)”.
Take “603 (FLIEPEHVNTV; listed as Homo sapiens) [compound 603]”: in the assay on CD8+ T cells, the “Wells positive [%]” value was “″+″ (<20% = +)”. Further, in the assay with HLA-A*02:01, the Peptide exchange entry is “″++″ (≥20% = ++)”.
